The text below walks through data of patent US6825185B2, “Substituted aryl compounds as novel cyclooxygenase-2 selective inhibitors, compositions and methods of use” (NitroMed, Inc., priority 2000, dated 2004).

Molecules are shown by their SMILES.

Data set [1] concerns the target T1, COX-1 (Homo sapiens, UniProt P23219). Description: Human COX-1 enzyme activity (COX Inhibitor Screening Assay, prostaglandin EIA). It counts as biochemical. Also noted: purchased Cayman Chemical. The note with it: test compound at 100 μM. How it is done:
(§1) The human COX-1 and COX-2 enzyme activities and the measurement of the prostaglandin products synthesized were performed using the COX Inhibitor Screening Assay (Cayman Chemical, Ann Arbor, Mich.), which also contained the Prostaglandin Screening EIA Kit, used for prostaglandin quantification). The test compounds were dissolved at 50 times the highest final reaction concentration in DMSO or any other suitable solvent as stock solutions. These stock solutions were then diluted in the same solvent. Eight glass test tubes (13×100 mm) were placed in a 25° C. water bath. To each test tube was added 950 μL of reaction buffer (0.1 M Tris-HCl, pH 8.0, containing 5 mM EDTA, and 2 mM phenol), 10 μL of 100 µM heme solution, and 10 μL (5 units) of either human COX-1 or COX-2 enzyme and the resulting mixture was incubated for 2 minutes. Twenty μL of the solvent was added to one tube (100% initial activity or solvent control) and 20 μL of each dilution of the test compound was added to one tube each. Each tube was vortexed immediately after the addition. The enzyme was incubated with the inhibitor for 20 minutes at 25° C. The enzymatic reaction was then initiated by the addition of 10 μL of freshly prepared 10 mM arachidonic acid (neutralized with KOH), vortexed and then incubated for 2 minutes (or, in some cases as indicated, 30 seconds) at 37° C. The reaction was terminated by the addition of 50 μL of 1 M HCl, vortexed and placed at room temperature. One hundred μL of a saturated stannous chloride solution (50 mg/mL of 0.1 M HCl) was added and the reaction mixture was allowed to stand at room temperature for at least 5 minutes.
(§2) The prostaglandins (PG) produced in the reactions were assayed, after a 2,000-fold dilution, using the Prostaglandin Screening EIA Kit (Cayman Chemical, Ann Arbor, Mich.). The assay contains an antibody with broad specificity for all the prostaglandin families (PGF, PGE, PGD, and thromboxane B-type) synthesized in the COX-1/COX-2 reactions. The synthesized prostaglandin competes with a PG-tagged acetylcholine esterase tracer for binding to the PG antibody. Binding of synthesized PG lowers the colorimetric development of the Ellman's Reagent (computed as %B/B0). The actual amount of synthesized PG was interpolated from a standard curve using known amounts of supplied prostaglandin E2 (PGE2) (PGE2 concentration vs. %B/B0). The data generated were the mean±standard deviation of triplicate wells in the EIA for a single reaction at a given inhibitor concentration. A plot of % of control (i.e., the solvent control without inhibitor) vs. test compound inhibitor concentration for both isoenzymes was used to determine the IC50 's for COX-1 and COX-2 for that test compound, when IC50's were calculated. The % inhibition for COX-1 and COX-2 enzyme activity by the test compounds at the indicated concentrations are given in Table 1.

The target of data set [2] is T2, COX-2 (Homo sapiens, UniProt P35354).
T2 sequence (P35354 18-604): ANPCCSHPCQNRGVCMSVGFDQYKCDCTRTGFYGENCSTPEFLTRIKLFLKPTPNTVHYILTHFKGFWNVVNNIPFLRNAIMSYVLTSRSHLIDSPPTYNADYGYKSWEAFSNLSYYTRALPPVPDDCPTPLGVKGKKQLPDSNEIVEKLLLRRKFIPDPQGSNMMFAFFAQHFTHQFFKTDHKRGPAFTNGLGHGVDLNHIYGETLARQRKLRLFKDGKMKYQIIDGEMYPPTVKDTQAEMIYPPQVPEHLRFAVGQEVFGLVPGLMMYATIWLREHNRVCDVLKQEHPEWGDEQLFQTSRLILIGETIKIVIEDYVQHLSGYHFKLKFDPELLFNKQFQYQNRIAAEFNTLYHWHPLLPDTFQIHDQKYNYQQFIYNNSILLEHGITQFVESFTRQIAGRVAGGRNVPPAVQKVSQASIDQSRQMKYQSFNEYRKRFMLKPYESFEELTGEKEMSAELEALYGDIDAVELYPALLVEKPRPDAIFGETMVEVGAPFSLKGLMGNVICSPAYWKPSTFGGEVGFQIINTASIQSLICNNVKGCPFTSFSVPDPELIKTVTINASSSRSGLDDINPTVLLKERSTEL
Put plainly: Human COX-2 enzyme activity (COX Inhibitor Screening Assay, prostaglandin EIA). The data set is classed as biochemical. Also noted: purchased Cayman Chemical. The note with it: test compound at 10 μM. How it is done:
as §1
as §2, with “concentration.” for “concentration. A plot of % of control (i.e., the solvent control without inhibitor) vs. test compound inhibitor concentration for both isoenzymes was used to determine the IC50 's for COX-1 and COX-2 for that test compound, when IC50's were calculated. The % inhibition for COX-1 and COX-2 enzyme activity by the test compounds at the indicated concentrations are given in Table 1.”

In data set [3] the target is T1, COX-1. Put plainly: COX-1 enzyme activity in human whole blood (A23187 stimulated, thromboxane B2 EIA). It counts as cell-based. Also noted: Human blood (≈50 mL) from male or female donors who had not received any aspirin or NSAIDs for 14 days; endogenous in cells; host or cells: human whole blood from donors. The note with it: test compound at 100 μM. How it is done: (§3) The assay for COX-1 and COX-2 enzyme activity, in the human whole blood was performed as described in Brideau et al., Inflamm Res., 45: 68-74 (1996)). Human blood (≈50 mL) from male or female donors who had not received any aspirin or NSAIDs for 14 days was collected at two local area blood donor centers and placed in polypropylene syringes containing sodium heparin (20 units per mL blood, final concentration). The blood was transported to the laboratory on ice packs and used within 1.5 hours of collection. Upon receipt in the laboratory, the blood was allowed to come to room temperature for 15 minutes prior to distribution in 1 mL aliquots per well of 24 well tissue culture plates. The plates were then placed on a gently rotating platform shaker in a 5% CO2 incubator at 37° C. for 15 minutes. Test compounds were dissolved in DMSO, at 1000 fold the final desired concentration, and further diluted, as indicated, in DMSO. One μL of each dilution of the test compound was added per well, in duplicate wells; wells not receiving test compound (e.g., basal, background or control wells) received 1 μL DMSO.
(§4) To induce COX-2, lipopolysaccharide (LPS) from E. coli (LPS, serotype 026:B6 or serotype 0127:B8, Sigma Chemical Co., St. Louis, Mo., Catalogue No. L3755 or L3129, respectively) was added at 10 μg/mL (2 μL of 5 mg/mL LPS in DMSO) to appropriate wells 15 minutes after the addition of the test compound. (Basal or background wells not incubated with LPS received 2 μL of DMSO.) For the stimulation of COX-1, the calcium ionophore, A23187 (free acid from Sigma Chemical Co., St. Louis, Mo., Catalogue No. C7522) was added at 25 μM (1 μL of 25 mM stock in DMSO) to separate wells 4.5 hours after the addition of the test compound. (Again, basal, background or control wells not stimulated with A23187 received 1 μL of DMSO.) At 5 hours after the addition of the test compound, all incubations were terminated by placement on ice and the addition of 2 mM EGTA (100 μL of 20 mM EGTA, tetrasodium, in PBS (phosphate buffered saline) without Ca^++ and Mg^++, pH 7.2)). The resulting solutions, were transferred by polyethylene transfer pipettes to 15 mL polypropylene centrifuge tubes and centrifuged at 1200 g for 10 minutes at 4° C. One hundred μL of plasma was removed from each blood sample and added to 1 mL of methanol in new 15 mL polypropylene centrifuge tubes, vortexed, and stored overnight at −20° C. The next day, the samples were centrifuged at 2000 g for 10 minutes at 4° C. and the supernatants transferred to glass tubes and evaporated to dryness. The samples were assayed for thromboxane B2 using EIA kits supplied by Cayman Chemical Co. (Ann Arbor, Mich., Catalogue No. 519031) in duplicate wells after reconstitution with EIA Buffer and appropriate dilution (2000 fold for COX-1 and 500 fold for Cox-2 samples).

Data set [4] deals with T2, COX-2. Description: COX-2 enzyme activity in human whole blood (LPS induced, thromboxane B2 EIA). The data set is classed as cell-based. Also on record: Human blood (≈50 mL) from male or female donors who had not received any aspirin or NSAIDs for 14 days; endogenous in cells; host or cells: human whole blood from donors, LPS-induced. The note with it: test compound at 10 μM. How it is done:
as §3, with “Human” for “The assay for COX-1 and COX-2 enzyme activity, in the human whole blood was performed as described in Brideau et al., Inflamm Res., 45: 68-74 (1996)). Human”
as §4, with “(Basal or background wells not incubated with LPS received 2 μL of DMSO.) For the stimulation of COX-1, the calcium ionophore, A23187 (free acid from Sigma Chemical Co., St. Louis, Mo., Catalogue No. C7522) was added at 25 μM (1 μL of 25 mM stock in DMSO) to separate wells 4.5 hours after the addition of the test compound.” left out, “dryness.” for “dryness. The samples were assayed for thromboxane B2 using EIA kits supplied by Cayman Chemical Co. (Ann Arbor, Mich., Catalogue No. 519031) in duplicate wells after reconstitution with EIA Buffer and appropriate dilution (2000 fold for COX-1 and 500 fold for Cox-2 samples).”

T1 sequence (P23219 24-599): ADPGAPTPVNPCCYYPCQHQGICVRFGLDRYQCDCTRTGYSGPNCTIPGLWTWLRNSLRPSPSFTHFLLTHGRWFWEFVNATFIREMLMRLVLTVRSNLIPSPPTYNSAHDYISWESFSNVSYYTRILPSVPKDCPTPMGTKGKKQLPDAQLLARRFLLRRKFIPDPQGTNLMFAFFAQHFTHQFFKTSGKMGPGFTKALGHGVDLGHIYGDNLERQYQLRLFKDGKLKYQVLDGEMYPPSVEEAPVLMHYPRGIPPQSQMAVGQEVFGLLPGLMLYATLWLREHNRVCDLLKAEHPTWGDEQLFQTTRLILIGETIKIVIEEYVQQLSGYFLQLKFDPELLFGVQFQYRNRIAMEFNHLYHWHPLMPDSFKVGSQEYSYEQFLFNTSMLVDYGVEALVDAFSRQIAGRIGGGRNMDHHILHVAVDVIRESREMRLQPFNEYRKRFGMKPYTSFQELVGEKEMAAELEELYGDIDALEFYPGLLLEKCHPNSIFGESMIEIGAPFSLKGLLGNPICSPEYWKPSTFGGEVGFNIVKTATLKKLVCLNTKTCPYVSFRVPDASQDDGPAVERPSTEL

For `CS(=O)(=O)c1ccc(-c2cc3c(cc2C(=O)c2cccnc2)OCO3)cc1` [Example 6d, 6-(4-(Methylsulfonyl)phenyl)(2H-benzo(d)1,3-dioxolan-5-yl) 3-pyridyl ketone], on COX-1 [1], the “COX-1 Inhibition (% at 100 μM)” value amounted to 20%. Further, the “COX-2 Inhibition (% at 10 μM)” value at COX-2 [2] is 20%.

Regarding `CS(=O)(=O)c1ccc(-c2ccccc2Cc2cccc(F)c2)cc1` [Example 26, 1-(2-((3-Fluorophenyl)methyl)phenyl)-4-(methylsulfonyl)benzene], the melting point lay within 97 to 98 °C. Moreover, the inhibition at 100 µM against COX-1 [3] is 25%. This molecule also displayed an inhibition at 10 µM against COX-2 [4] of 10%.

Molecule `CS(=O)(=O)c1ccc(-c2ccccc2C(=O)c2cccc(F)c2)cc1` [Example 25c, 3-Fluorophenyl 2-(4-(methylsulfonyl)phenyl)phenyl ketone] gave a melting point of 105 to 106 °C. This molecule displayed an inhibition at 100 µM against COX-1 [3] of 40%. This molecule registered an inhibition at 10 µM at COX-2 [4] of 40%.

Take `CS(=O)(=O)c1ccc(-c2cc3c(cc2CN2CCCC(CO[N+](=O)[O-])C2)OCO3)cc1` (stereo not drawn) [Example 8c, 4-(Methylsulfonyl)-1-(6-((3-((nitrooxy)methyl)piperidyl)methyl)(2H-benzo(3,4-d) 1,3-dioxolan-5-yl))benzene]: the “COX-1 Inhibition (% at 100 μM)” value on COX-1 [1] came to 25%. The “COX-2 Inhibition (% at 10 μM)” value at COX-2 [2] is listed as 80%.

As for `CS(=O)(=O)c1ccc(-c2cc3c(cc2CC2CCCC2)OCO3)cc1` [Example 10b, 4-(6-(Cyclopenthylmethyl)(2H-benzo(3,4-d)1,3-dioxolan-5-yl))-1-(methylsulfonyl)benzene], the “COX-1 Inhibition (% at 100 μM)” value on COX-1 [1] is recorded as 20%. Also, the “COX-2 Inhibition (% at 10 μM)” value at COX-2 [2] is listed as 70%.

Take `CS(=O)(=O)c1ccc(-c2cc3c(cc2C=C2CCCCC2)OCO3)cc1` [Example 1d, 1-(6-(Cyclohexylidenemethyl)(2-H-benzo(3,4-d) 1,3-dioxolen-5-yl))-4-(methylsulfonyl)benzene]: the entries for the “COX-1 Inhibition (% at 100 μM)” value on COX-1 [1] and at COX-1 [3] were 5% and 50%, respectively.

As for `CS(=O)(=O)c1ccc(-c2cc3c(cc2CN2CCCC(CO)C2)OCO3)cc1` (stereo not drawn) [Example 8b, 1-(6-((3-(Hydroxymethyl)piperidyl)methyl)(2H-benzo(3,4-d)1,3-dioxolan-5-yl))-4-(methylsulfonyl)benzene], on COX-1 [1], the “COX-1 Inhibition (% at 100 μM)” value is reported as 0%. The “COX-2 Inhibition (% at 10 μM)” value at COX-2 [2] is recorded as 30%.

On to `CS(=O)(=O)c1ccc(-c2cc3c(cc2C=C2CCCCCC2)OCO3)cc1` [Example 11b, 4-(6-(Cycloheptylidenemethyl)(2H-benzo(3,4-d)1,3-dioxolan-5-yl))-1-(methylsulfonyl) benzene], for which the entries for the “COX-1 Inhibition (% at 100 μM)” value on COX-1 [1] and at COX-1 [3] were 10% and 40%, respectively.
